From paper PMC11876601 (Molecular Systems Biology, 2025) come the findings set out here.

For assay [1], the system named is MiaPaCa-2. The experiment in a line: cells. Also on record: ATPlite luminescence viability of PDAC cell lines, 11-dose single-agent curves, 4-parameter fit. Particulars: Homo sapiens, MIA PaCa-2, 72 h, read-out: EC50 [nM]. The method, then: (§1) Afterward, small amounts were transferred to 384-well intermediate plates (Greiner Bio-One GmbH, Germany). […] For drug combination screening, 1000 to 5000 cells were seeded into 384-well plates (CulturPlate™, Perkin Elmer, MA, USA) using a Multidrop™ Combi Reagent Dispenser (Thermo Scientific, MA, USA) in 50 µl medium per well 24 h prior to drug treatment (seeding densities see Appendix Table S1). […] The final DMSO concentration in each well was 0.2%. […] Eight wells per plate without library drug served as negative controls, and sixteen wells per plate containing 5 µM Staurosporine served as positive controls. […] Next, we analyzed the drug sensitivity of immortalized duct cell line HPDE to detect effects unrelated to pancreatic cancer.

The test system of assay [2] is AsPC-1. Nature of the assay: cells. Also on record: Viability of PDAC cell lines, ATPlite luminescence, 11-dose single-agent curve fit. Particulars: Homo sapiens, ASPC1, 72 h, read-out: EC50 [nM]. How it is done: as §1
The test system of assay [3] is BxPC-3. Nature of the assay: cells. Also on record: Viability of PDAC cell lines, ATPlite luminescence, 11-dose single-agent curve fit. Particulars: Homo sapiens, BXPC-3, 72 h, read-out: EC50 [nM]. The method, then: as §1
Assay [4] deals with Capan-1. The experiment in a line: cells. Also on record: Viability of PDAC cell lines, ATPlite luminescence, 11-dose single-agent curve fit. Particulars: Homo sapiens, CAPAN-1, 72 h, read-out: EC50 [nM]. The method, then: as §1
Assay [5] concerns Colo-357. Nature of the assay: cells. Also on record: Viability of PDAC cell lines, ATPlite luminescence, 11-dose single-agent curve fit. Particulars: Homo sapiens, COLO357, 72 h, read-out: EC50 [nM]. How it is done:
as §1

For assay [6], the system named is Dan-G. The experiment in a line: cells. Also on record: Viability of PDAC cell lines, ATPlite luminescence, 11-dose single-agent curve fit. Particulars: 72 h, read-out: EC50 [nM]. The method, then: as §1
For assay [7], the system named is FAMPAC. Nature of the assay: cells. The following applies: 72 h, read-out: EC50 [nM]. Also on record: Viability of PDAC cell lines, ATPlite luminescence, 11-dose single-agent curve fit. How it is done: as §1
Assay [8] relates to HPDE. Nature of the assay: cells. The following applies: HPDE, 72 h, read-out: EC50 [nM]. Also on record: Viability of PDAC cell lines, ATPlite luminescence, 11-dose single-agent curve fit. The method, then: as §1
The subject of assay [9] is HuP-T4. The experiment in a line: cells. The following applies: Homo sapiens, HuP-T4, 72 h, read-out: EC50 [nM]. On the set-up: Viability of PDAC cell lines, ATPlite luminescence, 11-dose single-agent curve fit. How it is done: as §1
For assay [10], the system named is PANC-1. Nature of the assay: cells. Also on record: Viability of PDAC cell lines, ATPlite luminescence, 11-dose single-agent curve fit. Particulars: Homo sapiens, PANC-1, 72 h, read-out: EC50 [nM]. The method, then:
as §1

Assay [11] deals with PSN-1. The experiment in a line: cells. On the set-up: Viability of PDAC cell lines, ATPlite luminescence, 11-dose single-agent curve fit. Particulars: Homo sapiens, PSN1, 72 h, read-out: EC50 [nM]. The method, then: as §1
Assay [12] concerns PaTu-8988-T. The experiment in a line: cells. Particulars: Homo sapiens, PaTu 8988t, 72 h, read-out: EC50 [nM]. Also on record: Viability of PDAC cell lines, ATPlite luminescence, 11-dose single-agent curve fit. The method, then: as §1
Assay [13] has as its system Suit2-07. The experiment in a line: cells. The following applies: 72 h, read-out: EC50 [nM]. Also on record: Viability of PDAC cell lines, ATPlite luminescence, 11-dose single-agent curve fit. The method, then: as §1
Assay [14] has as its system AsPC-1 cells. The experiment in a line: Cell proliferation assay, chemodrug + ATR inhibitor (Incucyte confluence, 72 h).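 As to all read-outs here: underlying read-out for every value is AsPC-1 confluence after 72 h incubation at 37 °C and 5% CO2, divided by that well's starting confluence.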 The following applies: for EC50: Homo sapiens.
Description: Cells were seeded at 5000 cells/well into 96-well flat bottom plates (Eppendorf) and allowed to attach overnight. […] Cells were incubated for 72 h at 37 °C and 5% CO2. Cell confluence readouts at 72 h were either normalized to their initial confluence using the Incucyte software (AsPC-1) or used without prior normalization (all others). […] Each experiment was performed in triplicates, the data was plotted as mean ± standard deviation (s.d.).
Setting [15] is: AsPC-1, Experiment GEM (no ATRi), single replicates R1-R3.
Setting [16] is: AsPC-1, Experiment GEM+ATRi_dose1, single replicates R1-R3.
[17] abbreviates: AsPC-1, Experiment GEM+ATRi_dose2, single replicates R1-R3.
Setting [18] is: AsPC-1, Experiment GEM+ATRi_dose3, single replicates R1-R3.

Values joined by “and” are separate entries in the source; they are usually repeats but may differ in a detail not shown here. Equal values may be shown once. Read-outs that look alike come from different tables or passages of the source. A value given as a limit tells only on which side of the number the result lay.

Consider `CC(C)(C)c1cc(NC(=O)Nc2ccc(-c3cn4c(n3)sc3cc(OCCN5CCOCC5)ccc34)cc2)no1` [Quizartinib], for which the EC50 in assay [1] was 1410 nM; in [2], 1530 nM; in [3] it was 1570 nM; in assay [4], 1420 nM; in [5], 61.4 nM; in assay [6], 932 nM. The EC50 was determined as 2490 nM in assay [7]; 2670 nM in assay [8]; 1020 nM in [9]; 515 nM in [10]; 1470 nM in assay [11]; 96.7 nM in [12]. The EC50 in [13] was 155 nM.
`CNC(=O)c1ccc(-c2cnc3ncc(Cc4ccc5ncccc5c4)n3n2)cc1F` [Capmatinib]: the EC50 worked out at 1.63 nM in assay [2]; 323 nM in assay [3]; 6320 nM in [4]; 451 nM in assay [6]; 8.91 nM in assay [7]; 1090 nM in [8]. Further, the EC50 in assay [9] is 3120 nM; in assay [10] it was above 10000 nM; in assay [11], 521 nM; in [12], above 10000 nM; in [13], 6000 nM.
Turning to `Cc1cccc(-c2nn3c(c2-c2ccnc4ccc(C(N)=O)cc24)CCC3)n1` [Galunisertib], the EC50 was determined as 72.9 nM in [2]; 333 nM in assay [3]; 151 nM in [4]; 302 nM in assay [5]; 47.4 nM in [6]; 155 nM in [7]. Moreover, the EC50 is 230 nM in [8]; 1480 nM in assay [9]; 60.8 nM in assay [10]; 0.11 nM in assay [11]; 98.7 nM in [12]; 3360 nM in assay [13].
As usually defined, the pEC50 is −log10 of the EC50, conventionally taken in molar units. Consider `O=C1[O][Pt]2([NH][C@@H]3CCCC[C@H]3[NH]2)[O]C1=O` [Oxaliplatin], for which, in assay [14], the pEC50 came to 6.56 and the “sensitization of AsPC-1 cells to the chemodrug by Elimusertib” value is “sensitized”.
For `CC(=O)O[C@H]1C(=O)[C@@]2(C)[C@H]([C@H](OC(=O)c3ccccc3)[C@]3(O)C[C@H](OC(=O)[C@H](O)[C@@H](NC(=O)c4ccccc4)c4ccccc4)C(C)=C1C3(C)C)[C@]1(OC(C)=O)CO[C@@H]1C[C@@H]2O` [Paclitaxel], the Curve slope in assay [14] (setting [15]) is 1.97 and 2.99 and 2.20; in assay [14] (setting [16]), 1.47 and 2.08 and 1.46; in assay [14] (setting [17]) it was 2.59 and 1.83 and 1.78; in [14] (setting [18]) it was 2.50 and 1.97 and 3.20. The Curve top was 0.44 and 0.38 and 0.36 in assay [14] (setting [15]); 0.45 and 0.37 and 0.39 in assay [14] (setting [16]); 0.45 and 0.38 and 0.37 in [14] (setting [17]); 0.42 and 0.35 and 0.36 in [14] (setting [18]). Further, in assay [14] (setting [18]), the Curve bottom was 0.92 and 0.80. Moreover, the EC50 in [14] (ASPC1, 72 h, AsPC-1, Experiment GEM (no ATRi), single replicates R1-R3) is 1.89 nM; in assay [14] (ASPC1, 72 h, read-out: EC50 mean [nM], AsPC-1, Experiment GEM (no ATRi), mean of R1-R3, repeated in each replicate line) it was 2.09 nM; in assay [14] (ASPC1, 72 h, read-out: pEC50, AsPC-1 (converted), Experiment GEM (no ATRi), single replicates R1-R3), 1.91 nM; in assay [14] (ASPC1, read-out: EC50 mean [nM], AsPC-1, Experiment GEM (no ATRi), mean of R1-R3, repeated in each replicate line) it was 2.09 nM; in assay [14] (ASPC1, read-out: EC50 mean [nM], AsPC-1, Experiment GEM+ATRi_dose1, mean of R1-R3, repeated in each replicate line), 2.62 nM; in assay [14] (ASPC1, read-out: EC50 mean [nM], AsPC-1, Experiment GEM+ATRi_dose3, mean of R1-R3, repeated in each replicate line), 2.03 nM. In addition, the Response is 78.95 and 82.15 and 71.41 in assay [14] (chemodrug 1 nM + ATRi 3 nM); 76.45 and 74.25 and 74.55 in assay [14] (chemodrug 1 nM + ATRi 10 nM); 75.55 and 68.26 and 64.62 in assay [14] (chemodrug 1 nM + ATRi 30 nM); 78.71 and 81.33 and 75.17 in assay [14] (chemodrug 1 nM alone (ATRi 0 nM)); 63.11 and 58.53 and 53.51 in assay [14] (chemodrug 3 nM + ATRi 3 nM); 46.62 and 47.02 and 47.86 in assay [14] (chemodrug 3 nM + ATRi 10 nM). The Response in assay [14] (chemodrug 3 nM + ATRi 30 nM) is 47.65 and 42.95 and 41.75; in assay [14] (chemodrug 3 nM alone (ATRi 0 nM)), 51.76 and 52.32 and 44.31; in assay [14] (chemodrug 10 nM + ATRi 3 nM), 44.83 and 35.01 and 34.23; in assay [14] (chemodrug 10 nM + ATRi 10 nM) it was 38.43 and 33.69 and 33.51; in assay [14] (chemodrug 10 nM + ATRi 30 nM), 39.64 and 34.49 and 30.28; in assay [14] (chemodrug 10 nM alone (ATRi 0 nM)), 41.65 and 34.17 and 31.46. For the same molecule, the Response is 39.42 and 37.16 and 36.82 in assay [14] (chemodrug 30 nM + ATRi 3 nM); 50.74 and 48.74 and 42.64 in assay [14] (chemodrug 30 nM + ATRi 10 nM); 37.65 and 29.32 and 30.21 in assay [14] (chemodrug 30 nM + ATRi 30 nM); 37.54 and 28.80 and 29.10 in assay [14] (chemodrug 30 nM alone (ATRi 0 nM)); 42.23 and 38.61 and 46.44 in [14] (chemodrug 100 nM + ATRi 3 nM); 39.32 and 32.95 and 29.28 in assay [14] (chemodrug 100 nM + ATRi 10 nM). Moreover, the Response in [14] (chemodrug 100 nM + ATRi 30 nM) was 43.96 and 36.95 and 33.77; in [14] (chemodrug 100 nM alone (ATRi 0 nM)), 39.78 and 30.74 and 27.32; in assay [14] (chemodrug 300 nM + ATRi 3 nM) it was 37.81 and 31.67 and 30.77; in assay [14] (chemodrug 300 nM + ATRi 10 nM), 33.31 and 30.07 and 28.41; in assay [14] (chemodrug 300 nM + ATRi 30 nM), 35.70 and 31.17 and 27.41; in assay [14] (chemodrug 300 nM alone (ATRi 0 nM)), 37.36 and 36.59 and 31.62. The Response was 37.14 and 28.54 and 28.57 in [14] (chemodrug 1000 nM + ATRi 3 nM); 36.12 and 27.22 and 30.37 in [14] (chemodrug 1000 nM + ATRi 10 nM); 34.38 and 27.12 and 28.86 in assay [14] (chemodrug 1000 nM + ATRi 30 nM); 37.88 and 33.79 and 33.23 in [14] (chemodrug 1000 nM alone (ATRi 0 nM)); 36.69 and 27.57 and 27.01 in [14] (chemodrug 3000 nM + ATRi 3 nM); 34.07 and 26.83 and 25.03 in [14] (chemodrug 3000 nM + ATRi 10 nM). Besides, the Response in [14] (chemodrug 3000 nM + ATRi 30 nM) was 28.21 and 28.84 and 28.63; in assay [14] (chemodrug 3000 nM alone (ATRi 0 nM)), 33.73 and 34.70 and 28.11. Moreover, the “sensitization of AsPC-1 cells to the chemodrug by Elimusertib” value in assay [14] (chemodrug + three sub-EC50 doses of Elimusertib) is reported as “not”.
Take `CN(C)C(=O)c1cc2cnc(Nc3ccc(N4CCNCC4)cn3)nc2n1C1CCCC1` [Ribociclib]: the EC50 in [1] turned out to be 1280 nM; in assay [2], 6480 nM; in assay [3], 227 nM; in assay [4], 491 nM; in assay [5] it was 1280 nM; in assay [6] it was 3080 nM. Further, the EC50 in assay [7] was 401 nM; in assay [8], 49.6 nM; in [9], 1230 nM; in assay [10], above 10000 nM; in assay [11], 2250 nM; in [12] it was 9690 nM. In addition, in assay [13], the EC50 is 985 nM.
